One compound from patent US9834535B2, “Sulfamate derivative compounds for use in treating or alleviating pain” (Bio-Pharm Solutions Co., Ltd., priority 2013, dated 2017) can be followed below.

Experiment [1] deals with CFA-induced pain model. Kind of experiment: Antiallodynic activity on Complete Freund's Adjuvant (CFA)-induced inflammatory pain model (von Frey). It counts as in vivo, Sprague-Dawley rats. To be noted: ip; rat, intraperitoneal, von Frey, 0.5 h.
Experiment [2] relates to tail-flick withdrawal latency. In words: Tail-flick test. Format: in vivo, ICR mice. The conditions noted are these: mouse, oral. Here is the method: To examine the pain relief effect of the sulfamate compounds, a tail-flick test was conducted in general pain animal model referring to Current Protocols in Neuroscience; Behavioral Neuroscience Unit 8.9.
ICR mice (male, 25-30 g; Orient Bio, Korea) were habituated before test in test room for 1 hour. Animals were fasted 2 hr before administration of compounds. Each of Compound was orally administered at the close of 150 mg/kg, 10 ul/g, bw (n=7˜10/group). All compounds were dissolved in a vehicle of 30% (v/v) PEG 400 or 20% (v/v) Tween 80. The control group was treated the vehicle without compounds.
After the administration of compounds, the mice tail were put on a tail-flick analgesia meter. To avoid tissue damage, maximal exposure time to pain stimuli was restricted to 15 s. The withdrawal latency was measured as the time to the point when each mouse response to the stimulus. The relative values compared to the control (% control) were calculated.
The relative values compared to the sham were calculated and shown in Table 12, which show effect of the compound of examples on tail-flick test in […].
A general note: Hot-plate and tail-flick tests time the reaction to a heat stimulus.

For experiment [3], the system named is Post operation-induced pain model. In words: Antiallodynic activity on post operative-induced pain model (von Frey). Format: in vivo, Sprague-Dawley rats. The conditions noted are these: ip; rat, intraperitoneal, von Frey, 0.5 h. The procedure:
Male Sprague-Dawley rats′(Orient Bio, Korea), 300˜320 g, total of 201 rats were used (details in Table 7). Rats were habituated at least 3 clays before surgery and free access to food and water (room temperature and humidity were maintained at 24±2° C. and 50±10%, respectively). The process of performing the post-operation model's surgery was adapted from Brennan et al (1996). At first, rats with allodynia (threshold valueless than 8 g) were excluded in Pre-von Frey Test. During the post-operation surgery, rats were anesthetized under gaseous anesthesia with 2% isoflurane. Rats were laid face down on a plate fixed at 37° C. to prevent against hypothermia. The ipsilateral plantar aspect (left side) of the hind paw was prepared in a sterile manner with a 10% povidone-iodine solution. […]
For efficacy measure, the threshold value of group C was assigned 100% efficacy, and the percentage of the threshold values of group A compared to group C (for each different dose level) were calculated as the efficacies. Base on these efficacy values, ED50 was calculated using log fitting. […]
For pain threshold test, all animals were placed in a stainless steel meshed chamber and habituated for 30 min in the test box. The tactile sensitivity of the ipsilateral hind paw was measured using the up-and-down method (Dixon, 1980) with seven von Frey monofilaments (0.4, 1, 2, 4, 6, 8, and 15 g) using 3 trials. […]

Usually ED50 stands for the dose at which the effect has come halfway, by size or by number of responders. As for `CC1(C)O[C@@H](COS(N)(=O)=O)[C@H](c2ccccc2Cl)O1` [Example 2, ((4S,5S)-5-(2-chlorophenyl)-2,2-dimethyl-1,3-dioxolan-4-yl)methyl sulfamate], the figures for the ED50 in experiment [1] and in experiment [3] were 5.9 mg/kg and 1.8 mg/kg, respectively. Besides, the tail-flick test: dose in experiment [2] was > 200 mg/kg.
